Laboratory results as given in US9051299B2, “Imidazolyl methyl piperidine T-type calcium channel antagonists” (Merck Sharp & Dohme Corp., priority 2012, dated 2015).

Key:
[1] = biological target: T1, T-type calcium channel A1i (alpha-1I, CaV 3.3) (Homo sapiens, UniProt Q9P0X4); experiment: FLIPR Ca2+ Flux Assay, hyperpolarized state; assay type: cell-based; settings: measure of the ability to inhibit T-type calcium channel, read-out: Ali Hyperpolarized
T1 construct: expressed in transfected cells; host or cells: HEK 293 cells, tetracycline-inducible expression (Zeocin/Blasticidin selection)

[2] = biological target: T1, T-type calcium channel A1i (alpha-1I, CaV 3.3); experiment: FLIPR Ca2+ Flux Assay, depolarized state; assay type: cell-based; settings: measure of the ability to inhibit T-type calcium channel

T1 sequence (Q9P0X4 whole entry): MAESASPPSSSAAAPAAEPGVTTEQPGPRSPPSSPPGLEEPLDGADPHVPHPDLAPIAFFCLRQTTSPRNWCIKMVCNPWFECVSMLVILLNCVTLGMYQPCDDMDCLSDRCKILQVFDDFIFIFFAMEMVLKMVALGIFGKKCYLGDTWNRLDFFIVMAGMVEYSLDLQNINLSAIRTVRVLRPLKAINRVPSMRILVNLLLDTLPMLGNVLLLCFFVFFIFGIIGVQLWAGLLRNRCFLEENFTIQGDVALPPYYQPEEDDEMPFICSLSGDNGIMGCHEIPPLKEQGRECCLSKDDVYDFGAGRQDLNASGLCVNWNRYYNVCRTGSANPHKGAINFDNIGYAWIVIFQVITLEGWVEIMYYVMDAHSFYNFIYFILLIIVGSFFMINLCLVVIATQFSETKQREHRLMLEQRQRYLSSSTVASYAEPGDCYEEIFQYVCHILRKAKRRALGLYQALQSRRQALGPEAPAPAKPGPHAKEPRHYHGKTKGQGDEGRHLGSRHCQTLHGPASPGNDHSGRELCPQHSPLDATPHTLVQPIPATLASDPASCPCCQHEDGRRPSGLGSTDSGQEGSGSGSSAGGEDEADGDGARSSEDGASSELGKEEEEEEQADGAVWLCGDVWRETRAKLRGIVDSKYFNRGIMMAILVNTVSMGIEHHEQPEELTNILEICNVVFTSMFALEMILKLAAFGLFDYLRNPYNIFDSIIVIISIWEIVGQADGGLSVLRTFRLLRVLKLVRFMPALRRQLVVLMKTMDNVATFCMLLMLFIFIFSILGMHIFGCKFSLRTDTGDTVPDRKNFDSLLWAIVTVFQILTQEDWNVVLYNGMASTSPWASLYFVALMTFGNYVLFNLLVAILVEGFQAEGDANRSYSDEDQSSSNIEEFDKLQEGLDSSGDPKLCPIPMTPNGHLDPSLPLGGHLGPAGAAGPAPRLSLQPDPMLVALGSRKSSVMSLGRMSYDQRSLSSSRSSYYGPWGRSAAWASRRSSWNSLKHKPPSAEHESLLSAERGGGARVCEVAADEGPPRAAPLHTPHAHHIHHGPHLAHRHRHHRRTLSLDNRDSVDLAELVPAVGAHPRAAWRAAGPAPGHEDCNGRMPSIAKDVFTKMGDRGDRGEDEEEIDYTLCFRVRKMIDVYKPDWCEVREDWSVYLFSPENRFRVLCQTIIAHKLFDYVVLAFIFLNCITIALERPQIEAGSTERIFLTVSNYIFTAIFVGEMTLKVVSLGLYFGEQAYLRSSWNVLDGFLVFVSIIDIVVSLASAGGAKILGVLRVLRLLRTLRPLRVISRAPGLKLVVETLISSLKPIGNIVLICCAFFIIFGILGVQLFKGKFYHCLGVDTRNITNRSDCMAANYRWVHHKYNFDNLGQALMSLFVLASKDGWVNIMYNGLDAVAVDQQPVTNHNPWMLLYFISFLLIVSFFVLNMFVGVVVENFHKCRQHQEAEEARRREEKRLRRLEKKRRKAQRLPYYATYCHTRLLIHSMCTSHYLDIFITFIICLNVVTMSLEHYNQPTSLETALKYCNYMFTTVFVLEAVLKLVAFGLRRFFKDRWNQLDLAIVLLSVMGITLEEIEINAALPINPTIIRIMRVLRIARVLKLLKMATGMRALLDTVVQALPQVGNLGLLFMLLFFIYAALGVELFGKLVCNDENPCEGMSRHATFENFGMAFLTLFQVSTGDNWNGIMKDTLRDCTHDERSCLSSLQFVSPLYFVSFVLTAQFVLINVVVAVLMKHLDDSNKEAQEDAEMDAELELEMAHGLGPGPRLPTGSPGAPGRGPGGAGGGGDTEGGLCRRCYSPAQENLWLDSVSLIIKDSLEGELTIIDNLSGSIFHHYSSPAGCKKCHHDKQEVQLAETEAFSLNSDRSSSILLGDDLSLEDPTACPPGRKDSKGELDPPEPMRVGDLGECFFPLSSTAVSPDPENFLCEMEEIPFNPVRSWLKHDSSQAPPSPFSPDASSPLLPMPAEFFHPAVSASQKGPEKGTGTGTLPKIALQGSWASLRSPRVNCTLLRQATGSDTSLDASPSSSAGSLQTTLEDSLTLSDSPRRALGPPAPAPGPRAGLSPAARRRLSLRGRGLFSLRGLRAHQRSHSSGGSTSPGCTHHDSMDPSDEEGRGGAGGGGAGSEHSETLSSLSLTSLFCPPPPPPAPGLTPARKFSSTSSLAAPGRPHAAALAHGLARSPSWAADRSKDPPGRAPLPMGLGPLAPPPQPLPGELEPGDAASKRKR

Compound | IC50 [1] [µM] | IC50 [2] [µM]
O=C(c1cccc(C(F)(F)F)c1)C1CCN(Cc2cnc(-c3ccccc3)[nH]2)CC1 [Example 1, (1-((2-Phenyl-1H-imidazol-5-yl)methyl)piperidin-4-yl)(3-(trifluoromethyl)phenyl)-methanone] | 0.07 | 0.742
O=C(c1ccc(F)cc1)C1CCN(Cc2c[nH]c(-c3ccccc3)n2)CC1 [Example 2] | 0.242 | 3.18
O=C(c1cccc(Cl)c1)C1CCN(Cc2c[nH]c(-c3ccccc3)n2)CC1 [Example 3, (3-chlorophenyl)-[1-[(2-phenyl-1H-imidazol-4-yl)methyl]-4-piperidyl]methanone] | 0.129 | 2.09
O=C(c1ccc2nonc2c1)C1CCN(Cc2c[nH]c(-c3ccccc3)n2)CC1 [Example 4, 2,1,3-benzoxadiazol-5-yl-[1-[(2-phenyl-1H-imidazol-4-yl)methyl]-4-piperidyl]methanone] | 0.155 | 2.87
O=C(c1ccc(F)c(F)c1)C1CCN(Cc2c[nH]c(-c3ccccc3)n2)CC1 [Example 5, (3,4-difluorophenyl)-[1-[(2-phenyl-1H-imidazol-4-yl)methyl]-4-piperidyl]methanone] | 0.686 | 4.06
COc1ccc(C(=O)C2CCN(Cc3c[nH]c(-c4ccccc4)n3)CC2)cc1 [Example 6, (4-methoxyphenyl)-[1-[(2-phenyl-1H-imidazol-4-yl)methyl]-4-piperidyl]methanone] | 1.06 | > 10
Cc1ccc(C(=O)C2CCN(Cc3c[nH]c(-c4ccccc4)n3)CC2)cc1 [Example 7, [1-[(2-phenyl-1H-imidazol-4-yl)methyl]-4-piperidyl]-(p-tolyl)methanone] | 0.644 | 7.09
Cc1cccc(C(=O)C2CCN(Cc3c[nH]c(-c4ccccc4)n3)CC2)c1 [Example 8, m-tolyl-[1-[(2-phenyl-1H-imidazol-4-yl)methyl]-4-piperidyl]methanone] | 0.313 | 4.62
Cc1nc(CN2CCC(C(=O)c3cccc(C(F)(F)F)c3)CC2)c[nH]1 [Example 9, [1-[(2-methyl-1H-imidazol-4-yl)methyl]-4-piperidyl]-[3-(trifluoromethyl)phenyl]methanone] | 7.6 | > 10
CCc1nc(C)c(CN2CCC(C(=O)c3cccc(C(F)(F)F)c3)CC2)[nH]1 [Example 10, [1-[(2-ethyl-4-methyl-1H-imidazol-5-yl)methyl]-4-piperidyl]-[3-(trifluoromethyl)phenyl]methanone] | 6.9 | > 10
